From patent EP4670722A1, “PROPHYLACTIC OR AMELIORATING AGENT FOR CELL AGING” (Kyowa Pharma Chemical Co., Ltd., priority 2023, dated 2024)

How the values were obtained:
GLS1 [1] = experiment: GLS1 expression analysis (ELISA) in HUVEC after high glucose treatment; type: cell-based; conditions: human umbilical vein endothelial cells (HUVEC), 50 µg/mL to 1000 µg/mL, 24 hours; effect increased as content increased; Fig. 12
Description: Human umbilical vein endothelial cells (HUVEC) were cultured in DMEM + 10% FBS + 5 mM glucose (normal medium). The cultured cells were collected by trypsin treatment. The collected cells were seeded in a 10 cm dish and cultured for 24 hours in a 37°C, 5% CO2 incubator. Thereafter, a treatment of exposing the cells to DMEM + 10% FBS + 30 mM glucose (high glucose medium) for 10 hours and to normal medium for 14 hours was performed for 7 days. After 7 days, normal medium containing the test sample (2'-FL and lactose) at 50 µg/mL, 200 µg/mL, or 1000 µg/mL was added, and cultured for 24 hours in a 37°C, 5% CO2 incubator. The culture supernatant was removed, the cells were washed twice with PBS, and 0.20 mL of RIPA buffer was added to extract total protein. Protein in each protein extract was quantified by the Bradford assay.
Protein extracts were collected in the same manner as in [Example 10-1 B. Human gastric undifferentiated carcinoma cells (KKLS)], [Example 10-1 C. Mouse microglial cells (BV2)], [Example 10-1 D. Human gingival fibroblasts (Gin-1)], and [Example 10-1 E. Human umbilical vein endothelial cells (HUVEC)], respectively, except that a medium same as the above-mentioned medium but not containing the test sample was used instead of the medium containing the test sample, and protein in each protein extract was quantified by the Bradford assay. […]

[2] = tested on: Human normal epidermal keratinocytes (HaCaT); experiment: Cell proliferation rate (MTT) of normal epidermal keratinocytes; type: cell-based; conditions: 50 µg/mL to 200 µg/mL in medium, 2 days, activity increased as content increased, Fig. 1
Description: Human normal epidermal keratinocytes (HaCaT) were cultured using DMEM containing 10% FBS. The cultured cells were collected by trypsin treatment. The collected cells were seeded in a 96-well microplate at a concentration of 5.0 x 10^3 cells/well and cultured overnight. Thereafter, the cells were cultured for 2 days at 37°C in a medium for epidermal keratinocyte proliferation (FBS-free) to which a test sample (sucrose or 2'-fucosyllactose) was added to a concentration of 50 µg/mL, 100 µg/mL, or 200 µg/mL. The medium was replaced with FBS-free DMEM medium, then 10 µL/well of 5 mg/mL 3-[4,5-dimethylthiazol-2-yl]-2,5-diphenyltetrazolium bromide (MTT) was added, and the cells were cultured at 37°C for 3 hours. After completion of culture, formazan produced in the cells was extracted with 100 µL of dimethyl sulfoxide (DMSO). After extraction, the absorbance of formazan (As, 492 nm) was measured with a microplate reader. The reference wavelength was set to 620 nm.
Human normal epidermal keratinocytes were cultured and the absorbance of formazan was measured in the same manner as in Example 1-1, except that no test sample was added. The obtained absorbance was designated as Ab, and the cell proliferation rate represented by the following formula (1) was determined. Cell proliferation rate(%) = 100 x As/AB [formula]

GLS1 [3] = experiment: GLS1 expression analysis (ELISA) in Gin-1; type: cell-based; conditions: human gingival fibroblasts (Gin-1), 50 µg/mL to 1000 µg/mL, 24 hours; effect increased as content increased; Fig. 12
Description: Human gingival fibroblasts (Gin-1) were cultured in DMEM containing 10% FBS. The cultured cells were collected by trypsin treatment. Cells in a state where GLS1 was expressed without addition of the test sample were used for the test. Cells collected by trypsin treatment were seeded in a 6-well plate, and when they reached 80% confluence, DMEM containing the test sample (2'-FL and lactose) at 50 µg/mL, 200 µg/mL, or 1000 µg/mL was added, and cultured for 24 hours in a 37°C, 5% CO2 incubator. The culture supernatant was removed, the cells were washed twice with PBS, and 0.20 mL of RIPA buffer was added to extract total protein. Protein in each protein extract was quantified by the Bradford assay.
Protein extracts were collected in the same manner as in [Example 10-1 B. Human gastric undifferentiated carcinoma cells (KKLS)], [Example 10-1 C. Mouse microglial cells (BV2)], [Example 10-1 D. Human gingival fibroblasts (Gin-1)], and [Example 10-1 E. Human umbilical vein endothelial cells (HUVEC)], respectively, except that a medium same as the above-mentioned medium but not containing the test sample was used instead of the medium containing the test sample, and protein in each protein extract was quantified by the Bradford assay.
An ELISA method was performed using an antibody against GLS1 to measure the amount of GLS1 in the samples. […]

IL-1α = IL-1α expression analysis (ELISA) under H2O2; type: cell-based, Human; conditions: HaCaT, 20 µM H2O2, 50 µg/mL to 200 µg/mL, 24 hours; suppression increased as content increased; Fig. 10
Description: Human normal epidermal keratinocytes (HaCaT) were cultured in DMEM containing 10% FBS. The cultured cells were collected by trypsin treatment. The collected cells were seeded in a 48-well plate at a cell density of 6 x 10^4 cells/well and cultured for 24 hours in a 37°C, 5% CO2 incubator. After culturing, the cells were precultured for 2 hours in FBS-free DMEM containing the test sample (2'-FL and sucrose) at 50 µg/mL, 100 µg/mL, or 200 µg/mL, or in FBS-free DMEM not containing the test sample. Thereafter, the medium was replaced with FBS-free DMEM containing the test sample at 50 µg/mL, 100 µg/mL, or 200 µg/mL and 20 µM H2O2, or with FBS-free DMEM not containing the test sample but containing 20 µM H2O2, respectively, and after culturing for an additional 24 hours in a 37°C, 5% CO2 incubator, the culture supernatant was collected. The culture supernatant was centrifuged, and the resulting supernatant was used as a sample. […]
Since most IL-1α is released extracellularly, the IL-1α expression level was evaluated by measuring IL-1α in the supernatant medium by ELISA (AuthentiKine™ IL-1 alpha ELISA Kit, manufactured by Proteintech). […] The relative value of the IL-1α amount when each test sample was added was calculated, with the IL-1α amount in the control set to 1.

C[C@@H]1O[C@@H](O[C@H]2[C@H](O[C@H]3[C@H](O)[C@@H](O)C(O)O[C@@H]3CO)O[C@H](CO)[C@H](O)[C@@H]2O)[C@@H](O)[C@H](O)[C@@H]1O (stereo partly shown) [2'-FL, 2'-fucosyllactose]
GLS1 expression (GLS1 [1]): suppressed GLS1 expression
proliferation activity of normal epidermal cells (cell proliferation rate) [2]: improved the proliferation activity of normal epidermal cells
GLS1 expression (GLS1 [3]): suppressed GLS1 expression
H2O2-induced promotion of IL-1α expression (IL-1α): suppressed the H2O2-induced promotion of IL-1 α expression
